Measurements taken from PMC8969151 (2022).

Legend:
Experiment in all cases: in vitro transcription antitermination dose-response (E. coli RNAP)
[1] = tested on: pfl ZTP riboswitch (native, leader-less; PRA1_CbePfl_dRP1) (RNA, riboswitch) AUAUUAGAUAUUAGUCAUAUGACUGACGGAAGUGGAGUUACCACAUGAAGUAUGACUAGGCAUAUUAUCUUAUAUGCCACAAAAAGCCGACCGUCUGGGCAAAAAAAGCCUGGAUUGCGUCGGCUUUUUUAUAUGGAAAAGAUCGUCGGACUGUAGAACUCUGAACGUGUAGAUCUCGGUGGUCGCCGUAUCAUU; details: 50 mM KCl, 10 mM MgCl2; 20 mM Tris-HCl pH 8.0, 37 °C, 500 μM NTPs; up to 1 mM ZMP; readthrough fold-change 3.6
[2] = tested on: pfl ZTP riboswitch with C3-SC1 leader (PRA1_Cap3_SC1_CbePfl_dRP1) (RNA, riboswitch) AUUCGGUGCUCUUCUCUUCGGCCUUCGGGCCAAAUUAGAUAUUAGUCAUAUGACUGACGGAAGUGGAGUUACCACAUGAAGUAUGACUAGGCAUAUUAUCUUAUAUGCCACAAAAAGCCGACCGUCUGGGCAAAAAAAGCCUGGAUUGCGUCGGCUUUUUUAUAUGGAAAAGAUCGUCGGACUGUAGAACUCUGAACGUGUAGAUCUCGGUGGUCGCCGUAUCAUU; details: 50 mM KCl, 10 mM MgCl2; 20 mM Tris-HCl pH 8.0, 37 °C, 500 μM NTPs; up to 1 mM ZMP; readthrough fold-change 7.1
[3] = tested on: Cba ppGpp riboswitch (native, leader-less; PRA1_Cba2-2_dRP1) (RNA, riboswitch) AUAAUAAGAGAGUGUAUCUAGGGUUCCGGUCAAUAGAUGUCUGGUCCGAGCGAUACAGGAUUUCAAUCUACACUUUUAGGAAAAAAGCCUAAAGGACGAGUCUCUGCAAAGAGAUUUGUUCUUGGGCUUUAUUUUUUUAUCUUUAUUUAAGAUCGUCGGACUGUAGAACUCUGAACGUGUAGAUCUCGGUGGUCGCCGUAUCAUU; details: 50 mM KCl, 10 mM MgCl2; 20 mM Tris-HCl pH 8.0, 37 °C, 500 μM NTPs, NusA only stated for leader assay; readthrough fold-change 1.9
[4] = tested on: Cba ppGpp riboswitch with C3-SC1 leader (PRA1_Cap3_SC1_Cba2-2_dRP1) (RNA, riboswitch) AUUCGGUGCUCUUCUCUUCGGCCUUCGGGCCAAAAUAAGAGAGUGUAUCUAGGGUUCCGGUCAAUAGAUGUCUGGUCCGAGCGAUACAGGAUUUCAAUCUACACUUUUAGGAAAAAAGCCUAAAGGACGAGUCUCUGCAAAGAGAUUUGUUCUUGGGCUUUAUUUUUUUAUCUUUAUUUAAGAUCGUCGGACUGUAGAACUCUGAACGUGUAGAUCUCGGUGGUCGCCGUAUCAUU; details: 50 mM KCl, 10 mM MgCl2; 20 mM Tris-HCl pH 8.0, 37 °C, 500 μM NTPs, NusA; readthrough fold-change 6.0

| binding [1] | binding [2] | binding [3] | binding [4] | SMILES |
| --- | --- | --- | --- | --- |
| yes | yes |  |  | NC(=O)c1ncn([C@@H]2O[C@H](COP(=O)(O)O)[C@@H](O)[C@H]2O)c1N |
|  |  | yes | yes | Nc1nc2c(ncn2[C@@H]2O[C@H](COP(=O)(O)OP(=O)(O)O)[C@@H](OP(=O)(O)OP(=O)(O)O)[C@H]2O)c(=O)[nH]1 |
